In PubChem BioAssay AID248 (DTP/NCI, 2004):
Several values for one entry are separate records, joined by “and”; a condition that tells them apart may be missing. Identical values can stand only once. Toxic doses and inconclusive results are not listed. Peptide text beside a SMILES is read from it. * marks the point of attachment. Cbz = O=C(OCc1ccccc1)*; OtBu = CC(C)(C)O*

Test system: L1210 leukemia ip in BDF1 mice, survival T/C
Experiment: NCI In Vivo Anticancer Drug Screen. Data for tumor model L1210 Leukemia (intraperitoneal) in B6D2F1 (BDF1) mice
Details: endpoint: mean survival time, higher = longer survival
Procedure, shortened: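 Transplanted-tumor mice were given test agent; controls received vehicle only. Survival readings from the two groups were divided (treated over control).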

[1] = dose: 100.0 mg/kg/injection, schedule: Q01DX009 (ip), vehicle: saline with Tween-80
[2] = dose: 200.0 mg/kg/injection, schedule: Q01DX009 (ip), vehicle: saline with Tween-80
[3] = dose: 400.0 mg/kg/injection, schedule: Q01DX009 (ip), vehicle: saline with Tween-80
[4] = dose: 100.0 mg/kg/injection, schedule: Q04DX003 (ip), vehicle: Klucel (hydroxypropylcellulose) (HPC)
[5] = dose: 200.0 mg/kg/injection, schedule: Q04DX003 (ip), vehicle: Klucel (hydroxypropylcellulose) (HPC)
[6] = dose: 400.0 mg/kg/injection, schedule: Q04DX003 (ip), vehicle: Klucel (hydroxypropylcellulose) (HPC)
[7] = dose: 100.0 mg/kg/injection, schedule: Q01DX009 (ip), vehicle: Klucel (hydroxypropylcellulose) (HPC)
[8] = dose: 200.0 mg/kg/injection, schedule: Q01DX009 (ip), vehicle: Klucel (hydroxypropylcellulose) (HPC)
[9] = dose: 100.0 mg/kg/injection, schedule: Q01DX001 (ip), vehicle: carboxymethylcellulose (CMC)
[10] = dose: 200.0 mg/kg/injection, schedule: Q01DX001 (ip), vehicle: carboxymethylcellulose (CMC)
[11] = dose: 400.0 mg/kg/injection, schedule: Q01DX001 (ip), vehicle: carboxymethylcellulose (CMC)
[12] = dose: 400.0 mg/kg/injection, schedule: Q01DX009 (ip), vehicle: Klucel (hydroxypropylcellulose) (HPC)
[13] = dose: 100.0 mg/kg/injection, schedule: Q04DX002 (ip), vehicle: saline
[14] = dose: 6.25 mg/kg/injection, schedule: Q01DX009 (ip), vehicle: saline
[15] = dose: 12.5 mg/kg/injection, schedule: Q01DX009 (ip), vehicle: saline
[16] = dose: 25.0 mg/kg/injection, schedule: Q01DX005 (ip), vehicle: saline
[17] = dose: 25.0 mg/kg/injection, schedule: Q01DX009 (ip), vehicle: saline

Structure (SMILES): COc1cc(OC(C)=O)c(OC(C)=O)cc1OC(C)=O
- T/C [1]: 98 % of control
- T/C [2]: 96 % of control
- T/C [3]: 100 % of control

Structure (SMILES): COC(=O)C(CCC(=O)OC(C)(C)C)NC(=O)C(CCC(=O)OC(C)(C)C)NC(=O)OCc1ccccc1 (stereo not given) (Cbz-Glu(OtBu)-Glu(OtBu)-OMe; configuration not given here)
- T/C [4]: 100 % of control
- T/C [5]: 99 % of control
- T/C [6]: 103 % of control

Structure (SMILES): O=C1NC(=O)C2(CCc3ccccc32)N1 (stereo not given)
- T/C (dose: 50.0 mg/kg/injection, schedule: Q01DX009 (ip), vehicle: Klucel (hydroxypropylcellulose) (HPC)): 105 % of control
- T/C [7]: 100 % of control
- T/C [4]: 108 % of control
- T/C [8]: 98 % of control
- T/C [5]: 100 % of control
- T/C [6]: 94 % of control

Structure (SMILES): COc1ccc(Oc2cc(OC)ccc2Oc2ccccc2)cc1
- T/C [9]: 97 % of control
- T/C [10]: 105 % of control
- T/C [11]: 110 % of control

Structure (SMILES): CCCCN(CCCC)/C(=C/C(=O)OC)C(=O)OC
- T/C [4]: 94 % of control
- T/C [5]: 100 % of control
- T/C [6]: 94 % of control

Structure (SMILES): COC(=O)c1ccccc1NC(=O)Nc1ccc(SC)cc1
- T/C [7]: 89 % of control
- T/C [8]: 92 % of control
- T/C [12]: 95 % of control

Structure (SMILES): O=P(O)(O)CO
- T/C [13]: 97 % of control and 87 % of control
- T/C (dose: 200.0 mg/kg/injection, schedule: Q04DX002 (ip), vehicle: saline): 86 % of control

Structure (SMILES): CC#CC(=O)O
- T/C [14]: 106 % of control
- T/C [15]: 106 % of control
- T/C [16]: 104 % of control
- T/C [17]: 98 % of control and 100 % of control
- T/C (dose: 25.0 mg/kg/injection, schedule: Q04DX002 (ip), vehicle: saline): 95 % of control
- T/C (dose: 50.0 mg/kg/injection, schedule: Q01DX005 (ip), vehicle: saline): 97 % of control
- T/C (dose: 50.0 mg/kg/injection, schedule: Q04DX002 (ip), vehicle: saline): 102 % of control
- T/C (dose: 100.0 mg/kg/injection, schedule: Q01DX005 (ip), vehicle: saline): 93 % of control
- T/C [13]: 104 % of control

Structure (SMILES): CC(C)Cn1cnc2c(=S)nc(N)[nH]c21
- T/C (dose: 6.0 mg/kg/injection, schedule: Q01DX015 (ip), vehicle: other): 107 % of control
- T/C (dose: 9.0 mg/kg/injection, schedule: Q01DX015 (ip), vehicle: carboxymethylcellulose (CMC)): 103 % of control
- T/C (dose: 9.0 mg/kg/injection, schedule: Q01DX015 (ip), vehicle: other): 111 % of control
- T/C (dose: 13.0 mg/kg/injection, schedule: Q01DX015 (ip), vehicle: carboxymethylcellulose (CMC)): 104 % of control
- T/C (dose: 20.0 mg/kg/injection, schedule: Q01DX015 (ip), vehicle: carboxymethylcellulose (CMC)): 109 % of control
- T/C (dose: 21.0 mg/kg/injection, schedule: Q01DX015 (ip), vehicle: other): 150 % of control
- T/C (dose: 22.0 mg/kg/injection, schedule: Q01DX001 (ip), vehicle: carboxymethylcellulose (CMC)): 114 % of control
- T/C (dose: 44.0 mg/kg/injection, schedule: Q01DX015 (ip), vehicle: carboxymethylcellulose (CMC)): 109 % of control
- T/C (dose: 60.0 mg/kg/injection, schedule: Q01DX015 (ip), vehicle: other): 124 % of control
- T/C (dose: 66.0 mg/kg/injection, schedule: Q01DX015 (ip), vehicle: carboxymethylcellulose (CMC)): 98 % of control
- T/C [9]: 155 % of control
- T/C (dose: 100.0 mg/kg/injection, schedule: Q01DX015 (ip), vehicle: carboxymethylcellulose (CMC)): 98 % of control
- T/C (dose: 100.0 mg/kg/injection, schedule: Q01DX015 (ip), vehicle: other): 121 % of control
- T/C [10]: 153 % of control and 161 % of control
- T/C [11]: 112 % of control

Structure (SMILES): CCCCCCCCCCCCCCCCCC[N+]1(C)CCOCC1
- T/C (dose: 6.25 mg/kg/injection, schedule: Q01DX009 (ip), vehicle: Klucel (hydroxypropylcellulose) (HPC)): 94 % of control
- T/C (dose: 12.5 mg/kg/injection, schedule: Q01DX009 (ip), vehicle: Klucel (hydroxypropylcellulose) (HPC)): 100 % of control
- T/C (dose: 25.0 mg/kg/injection, schedule: Q01DX009 (ip), vehicle: Klucel (hydroxypropylcellulose) (HPC)): 97 % of control

Structure (SMILES): CCOc1cc(/C=N\NC(=O)CCCC(=O)N/N=C/c2ccc(O)c(OCC)c2)ccc1O
- T/C [10]: 95 % of control

Structure (SMILES): O=[N+]([O-])c1ccc(C[Se]c2ncnc3c2ccn3C2OC(CO)C(O)C2O)cc1 (stereo not given)
- T/C [14]: 95 % of control
- T/C (dose: 12.5 mg/kg/injection, schedule: Q01DX005 (ip), vehicle: saline): 102 % of control
- T/C [15]: 91 % of control
- T/C [16]: 105 % of control
- T/C [17]: 102 % of control

Structure (SMILES): Nc1nc(N)c2nc(CN(CCO)c3ccc(C(=O)NC(CCC(=O)O)C(=O)O)cc3)cnc2n1 (stereo not given)
- T/C (dose: 1.0 mg/kg/injection, schedule: Q01DX009 (ip), vehicle: sodium bicarbonate): 151 % of control
- T/C (dose: 2.0 mg/kg/injection, schedule: Q01DX009 (ip), vehicle: Klucel (hydroxypropylcellulose) (HPC)): 174 % of control
- T/C (dose: 2.0 mg/kg/injection, schedule: Q01DX009 (ip), vehicle: sodium bicarbonate): 172 % of control
- T/C (dose: 4.0 mg/kg/injection, schedule: Q01DX009 (ip), vehicle: Klucel (hydroxypropylcellulose) (HPC)): 160 % of control
- T/C (dose: 4.0 mg/kg/injection, schedule: Q01DX009 (ip), vehicle: sodium bicarbonate): 178 % of control
- T/C (dose: 8.0 mg/kg/injection, schedule: Q01DX009 (ip), vehicle: Klucel (hydroxypropylcellulose) (HPC)): 151 % of control
- T/C (dose: 8.0 mg/kg/injection, schedule: Q01DX009 (ip), vehicle: sodium bicarbonate): 113 % of control
- T/C (dose: 16.0 mg/kg/injection, schedule: Q01DX009 (ip), vehicle: Klucel (hydroxypropylcellulose) (HPC)): 108 % of control
- T/C (dose: 16.0 mg/kg/injection, schedule: Q01DX009 (ip), vehicle: sodium bicarbonate): 89 % of control
- T/C (dose: 32.0 mg/kg/injection, schedule: Q01DX009 (ip), vehicle: Klucel (hydroxypropylcellulose) (HPC)): 96 % of control

Structure (SMILES): CC(C=O)CC1CCCCC1 (stereo not given)
- T/C [1]: 97 % of control
- T/C (dose: 100.0 mg/kg/injection, schedule: Q04DX003 (ip), vehicle: saline with Tween-80): 95 % of control
- T/C [2]: 95 % of control
- T/C (dose: 200.0 mg/kg/injection, schedule: Q04DX003 (ip), vehicle: saline with Tween-80): 97 % of control
- T/C [3]: 95 % of control
- T/C (dose: 400.0 mg/kg/injection, schedule: Q04DX003 (ip), vehicle: saline with Tween-80): 95 % of control

Structure (SMILES): C=C1CCC2C(O)CCN2C1=O (stereo not given)
- T/C (dose: 25.0 mg/kg/injection, schedule: Q01DX001 (ip), vehicle: saline): 103 % of control
- T/C (dose: 50.0 mg/kg/injection, schedule: Q01DX001 (ip), vehicle: saline): 106 % of control
- T/C (dose: 100.0 mg/kg/injection, schedule: Q01DX001 (ip), vehicle: saline): 109 % of control
- T/C (dose: 200.0 mg/kg/injection, schedule: Q01DX001 (ip), vehicle: saline): 104 % of control

Structure (SMILES): COc1ccc(N=Nc2ccccc2)cc1
- T/C [4]: 95 % of control
- T/C [5]: 94 % of control
- T/C [6]: 94 % of control

Structure (SMILES): C[N+](C)(CCO)CC(O)c1ccc(C(O)C[N+](C)(C)CCO)cc1 (stereo not given)
- T/C (dose: 0.05 mg/kg/injection, schedule: Q04DX003 (ip), vehicle: saline): 102 % of control
- T/C (dose: 0.1 mg/kg/injection, schedule: Q04DX003 (ip), vehicle: saline): 104 % of control
- T/C (dose: 0.2 mg/kg/injection, schedule: Q04DX003 (ip), vehicle: saline): 93 % of control

Structure (SMILES): COc1ccc(/C=C/c2nccc3ccccc23)cc1OC
- T/C (dose: 50.0 mg/kg/injection, schedule: Q04DX002 (ip), vehicle: Klucel (hydroxypropylcellulose) (HPC)): 105 % of control
- T/C (dose: 100.0 mg/kg/injection, schedule: Q04DX002 (ip), vehicle: Klucel (hydroxypropylcellulose) (HPC)): 102 % of control
- T/C (dose: 200.0 mg/kg/injection, schedule: Q04DX002 (ip), vehicle: Klucel (hydroxypropylcellulose) (HPC)): 96 % of control and 108 % of control
- T/C (dose: 400.0 mg/kg/injection, schedule: Q04DX002 (ip), vehicle: Klucel (hydroxypropylcellulose) (HPC)): 89 % of control

Structure (SMILES): Cc1cc(C)c(C(=O)/C=C/c2ccccc2)c(C)c1
- T/C [7]: 91 % of control
- T/C [4]: 104 % of control
- T/C [8]: 94 % of control
- T/C [5]: 101 % of control
- T/C [12]: 94 % of control
- T/C [6]: 95 % of control

Structure (SMILES): FC(F)(F)c1cccc(NC(=S)N2CCOCC2)c1
- T/C [7]: 98 % of control
- T/C [8]: 104 % of control
- T/C [12]: 96 % of control
